Reference: publication PMC10150366, “Discovery of an In Vivo Chemical Probe for BCL6 Inhibition by Optimization of Tricyclic Quinolinones” (Journal of Medicinal Chemistry, 2023)
Values joined by “and” are separate entries in the source; they are usually repeats but may differ in a detail not shown here. Equal values may be shown once. Read-outs that look alike come from different tables or passages of the source.

How the values were obtained:
[1] = biological target: T1, BCL6-SMRT (NCOR2) corepressor protein-protein interaction (Homo sapiens, UniProt P41182); assay: NanoBRET cellular assay (HEK293T); assay type: cell-based
T1 construct: DNA encoding full length BCL6 and SMRT; expressed in transfected cells; host or cells: HEK293T
Experimental: Test compounds in DMSO or DMSO alone
concentration in 0.7% v/v DMSO final.
(also called NCOR2) corepressor protein-protein interaction. DNA encoding full length BCL6 and SMRT
fusion proteins BCL6-nanoLuc and SMRT-HaloTag, respectively. HEK293T cells were plated […] in T75
At the time of assay, compounds
dispensing (Labcyte Inc.). Frozen transfected HEK293T cells were thawed, centrifuged and freezing
DMSO final concentration.
After a short centrifugation the
(1st emission filter) / 450-80 nm (2nd emission filter). The % inhibition at each test concentration was
sigmoidal four-parameter logistic fit equation. […]

[2] = biological target: human BCL6 BTB domain (Homo sapiens, UniProt P41182); assay: BCL6 TR-FRET assay; assay type: binding; conditions: for IC90: read-out: BCL6 TR-FRET IC90 Geometric Mean
Experimental: 1. Supplementary experimental: protein production, purification and crystallography 1.1 BCL6 constructs used for assays and crystallography […]
cleavage site. For the TR-FRET assay, the Trx-6His-HRV3C-BCL6 protein construct was used without cleaving the tag, as a 6His was needed to bind to the anti-6His-Terbium antibody. […]
For both plasmid constructs described above, transformed BL21-AI E. coli cells were grown in LB media […]
Expression was carried out at 18 °C for 18 hours. Cells were harvested by centrifugation (5500 g for 30 minutes at 4 °C) and stored at -80 °C.
Cells were re-suspended in a buffer composed of 20 mM Tris pH 8, 250 mM NaCl, 1 mM MgCl2, 0.5 mM […]
lysed by sonication followed by centrifugation at 21,000 g for 45 minutes at 4 °C. […]
ResourceQ and gel filtration using a HiLoad 26/60 Superdex75 column in a buffer containing 20 mM HEPES […]
The final protein was assessed for purity and molar mass by SDS-PAGE and high-resolution mass spectrometry, respectively.
For the uncleaved Trx-6His-HRV3C-BCL6 protein construct to be used in TR-FRET, the protein was directly eluted from the HisTrap FF column without HRV-3C treatment, and submitted to Superdex75 gel filtration […]
Test compounds in DMSO or DMSO alone […]
concentration in 0.7% v/v DMSO final. […]

[3] = HEK-293T, Table S2, read-out: BCL6 NanoBRET IC90 individual replicates
[4] = HEK-293T, geometric mean of at least three replicates, read-out: NanoBRET IC90
[5] = geometric mean of at least three replicates, read-out: NanoBRET IC50
[6] = single replicates, Table S2, read-out: BCL6 NanoBRET IC50 individual replicates
[7] = Table S1, read-out: BCL6 TR-FRET pIC50 mean (converted)
[8] = geometric mean of at least three replicates, read-out: BCL6 TR-FRET IC50

Row | IC90 [1, 3] [nM] | BCL6 NanoBRET pIC50 mean ([1]; Table S2) | IC50 [1, 5] | IC50 [1, 6] | IC90 ([2]; Table S1) [nM] | IC50 [2, 8] [nM] | BCL6 TR-FRET pIC50 mean ([2]; Table S1) | IC50 ([1]; supplement, read-out: BCL6 NanoBRET IC50 Geometric Mean) [nM] | IC50 ([1]; Table S2, read-out: BCL6 NanoBRET pIC50 mean (converted)) [nM] | IC50 ([2]; supplement, read-out: BCL6 TR-FRET IC50 Geometric Mean) [nM] | Structure (SMILES) | IC90 ([1]; HEK-293T, Table S2, several values per compound, read-out: BCL6 NanoBRET IC90 Geometric Mean) [nM] | calculated free (unbound) cellular IC90 ([1]; HEK-293T, calculated free cellular IC90 from NanoBRET assay) [nM] | IC90 [1, 4] [nM] | IC90 ([1]; Table S2, several values per compound, read-out: BCL6 NanoBRET IC90 Geometric Mean) | IC50 [2, 7] [nM]
1 | 98.7 | 7.9026 | 12.5 nM | 9.6 nM and 14.7 nM and 14 nM | 19.9 | 3 | 8.527 |  |  |  | Cn1c(=O)c2c(c3cc(Nc4nc(N5CC6CCC(C5)O6)ncc4Cl)ccc31)N[C@@H](C1CC1)C(F)(F)CO2 [compound 5, (S)-10-((2-(8-Oxa-3-azabicyclo[3.2.1]octan-3-yl)-5-chloropyrimidin-4-yl)amino)-2-cyclopropyl-3,3-difluoro-7-methyl-1,2,3,4-tetrahydro-[1,4]oxazepino[2,3-c]quinolin-6(7H)-one] |  |  |  |  | 
2 | 1620 | 6.8258 | 149 nM | 229 nM and 48.1 nM and 302 nM | 45.4 | 5.5 | 8.2581 | 149 |  |  | Cn1c(=O)c2c(c3cc(Nc4nc(N5CCC5)ncc4Cl)ccc31)N[C@@H](C1CC1)C(F)(F)CO2 [compound 9, (S)-10-((2-(Azetidin-1-yl)-5-chloropyrimidin-4-yl)amino)-2-cyclopropyl-3,3-difluoro-7-methyl-1,2,3,4-tetrahydro-[1,4]oxazepino[2,3-c]quinolin-6(7H)-one] |  |  |  |  | 
3 | 386 |  | 38 nM | 26 nM and 57.5 nM and 55.3 nM | 34.1 | 3.7 |  |  | 43.6 |  | COC1CN(c2ncc(Cl)c(Nc3ccc4c(c3)c3c(c(=O)n4C)OCC(F)(F)[C@H](C4CC4)N3)n2)C1 [compound 10, (S)-10-((5-Chloro-2-(3-methoxyazetidin-1-yl)pyrimidin-4-yl)amino)-2-cyclopropyl-3,3-difluoro-7-methyl-1,2,3,4-tetrahydro-[1,4]oxazepino[2,3-c]quinolin-6(7H)-one] |  |  |  |  | 3.93
4 | 175 | 7.5086 | 31 nM | 61.1 nM and 18.2 nM and 26.8 nM | 85.4 | 10 |  |  |  | 10.3 | Cn1c(=O)c2c(c3cc(Nc4nc(N5CC(F)(F)C5)ncc4Cl)ccc31)N[C@@H](C1CC1)C(F)(F)CO2 [compound 11, (S)-10-((5-Chloro-2-(3,3-difluoroazetidin-1-yl)pyrimidin-4-yl)amino)-2-cyclopropyl-3,3-difluoro-7-methyl-1,2,3,4-tetrahydro-[1,4]oxazepino[2,3-c]quinolin-6(7H)-one] |  |  | 175 |  | 

Row | Structure (SMILES) | IC90 [1, 3] [nM] | BCL6 NanoBRET pIC50 mean ([1]; Table S2) | IC50 [1, 5] | IC50 [1, 6] | IC90 ([2]; Table S1) [nM] | IC50 [2, 8] [nM] | BCL6 TR-FRET pIC50 mean ([2]; Table S1) | IC50 ([1]; supplement, read-out: BCL6 NanoBRET IC50 Geometric Mean) [nM] | IC50 ([1]; Table S2, read-out: BCL6 NanoBRET pIC50 mean (converted)) [nM] | IC50 ([2]; supplement, read-out: BCL6 TR-FRET IC50 Geometric Mean) [nM] | IC90 ([1]; HEK-293T, Table S2, several values per compound, read-out: BCL6 NanoBRET IC90 Geometric Mean) [nM] | calculated free (unbound) cellular IC90 ([1]; HEK-293T, calculated free cellular IC90 from NanoBRET assay) [nM] | IC90 [1, 4] [nM] | IC90 ([1]; Table S2, several values per compound, read-out: BCL6 NanoBRET IC90 Geometric Mean) | IC50 [2, 7] [nM]
5 | Cn1c(=O)c2c(c3cc(Nc4nc(N5C6CCC5COC6)ncc4Cl)ccc31)N[C@@H](C1CC1)C(F)(F)CO2 [compound 4, (S)-10-((2-(3-Oxa-8-azabicyclo[3.2.1]octan-8-yl)-5-chloropyrimidin-4-yl)amino)-2-cyclopropyl-3,3-difluoro-7-methyl-1,2,3,4-tetrahydro-[1,4]oxazepino[2,3-c]quinolin-6(7H)-one] | 142 | 7.9696 | 10.7 nM and 11 nM | 12.3 nM and 8.2 nM and 12.1 nM | 10.2 | 1.4 |  |  |  |  | 185 | 42 | 143 | 101 nM and 154 nM | 1.51
6 | Cn1c(=O)c2c(c3cc(Nc4nc(N5C6COCC5CC(O)C6)ncc4Cl)ccc31)N[C@@H](C1CC1)C(F)(F)CO2 (stereo partly drawn) [compound 8, (S)-10-((5-Chloro-2-((1R,5S,7R)-7-hydroxy-3-oxa-9-azabicyclo[3.3.1]-nonan-9-yl)pyrimidin-4-yl)amino)-2-cyclopropyl-3,3-difluoro-7-methyl-1,2,3,4-tetrahydro-[1,4]oxazepino[2,3-c]quinolin-6(7H)-one] |  |  |  |  | 7.6 | 1.3 |  |  |  |  |  |  |  |  | 1.31
